{"source": "ChEMBL document CHEMBL3769367", "about": "“Orexin Receptor Antagonists: New Therapeutic Agents for the Treatment of Insomnia” (J Med Chem, 2016)", "key": {"Orexin receptor type 2 [1]": {"biological_target": "T1, Orexin receptor type 2 (Homo sapiens, UniProt O43614)", "T1 sequence (O43614 whole entry)": "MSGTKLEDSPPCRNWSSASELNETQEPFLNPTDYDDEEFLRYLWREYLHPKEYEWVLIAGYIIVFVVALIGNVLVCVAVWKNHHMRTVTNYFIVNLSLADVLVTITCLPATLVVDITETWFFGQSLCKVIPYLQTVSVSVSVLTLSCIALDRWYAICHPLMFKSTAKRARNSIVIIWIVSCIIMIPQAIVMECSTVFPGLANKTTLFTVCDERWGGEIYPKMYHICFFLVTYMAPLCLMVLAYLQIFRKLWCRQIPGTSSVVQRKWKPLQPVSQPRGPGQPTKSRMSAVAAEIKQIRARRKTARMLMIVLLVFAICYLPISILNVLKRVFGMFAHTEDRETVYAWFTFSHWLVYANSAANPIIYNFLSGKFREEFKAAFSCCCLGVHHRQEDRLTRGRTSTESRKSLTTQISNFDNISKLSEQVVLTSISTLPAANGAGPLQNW", "assay": "Binding affinity to OX2R (unknown origin)"}, "[2]": {"biological_target": "T2, Orexin/Hypocretin receptor type 1 (Homo sapiens, UniProt O43613)", "T2 sequence (O43613 whole entry)": "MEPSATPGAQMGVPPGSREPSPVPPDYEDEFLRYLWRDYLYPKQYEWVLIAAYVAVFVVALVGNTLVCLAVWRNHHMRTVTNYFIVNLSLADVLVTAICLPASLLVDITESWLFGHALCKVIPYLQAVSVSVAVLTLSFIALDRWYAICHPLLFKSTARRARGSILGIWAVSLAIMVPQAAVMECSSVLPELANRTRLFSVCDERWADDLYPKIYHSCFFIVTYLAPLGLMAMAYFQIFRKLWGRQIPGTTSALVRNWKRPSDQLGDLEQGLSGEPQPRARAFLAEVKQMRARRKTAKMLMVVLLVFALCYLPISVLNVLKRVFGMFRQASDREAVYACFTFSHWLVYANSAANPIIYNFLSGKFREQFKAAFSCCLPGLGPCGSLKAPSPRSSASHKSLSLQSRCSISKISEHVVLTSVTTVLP", "assay": "Binding affinity to OX1R (unknown origin)"}, "[3]": {"biological_target": "T2, Orexin/Hypocretin receptor type 1", "assay": "Antagonist activity at OX1R (unknown origin)"}, "Orexin receptor type 2 [4]": {"biological_target": "T1, Orexin receptor type 2", "assay": "Antagonist activity at OX2R (unknown origin)"}, "[5]": {"biological_target": "T2, Orexin/Hypocretin receptor type 1", "assay": "Antagonist activity at human OX1R expressed in CHO cells assessed as inhibition of orexin-A-induced intracellular calcium release by FLIPR assay", "assay_type": "functional, cell-based"}, "Orexin receptor type 2 [6]": {"biological_target": "T1, Orexin receptor type 2", "assay": "Antagonist activity at human OX2R expressed in CHO cells assessed as inhibition of orexin-A-induced intracellular calcium release by FLIPR assay", "assay_type": "functional, cell-based"}, "Cytochrome P450 3A4": {"biological_target": "Cytochrome P450 3A4 (Homo sapiens, UniProt P08684)", "sequence (P08684 whole entry)": "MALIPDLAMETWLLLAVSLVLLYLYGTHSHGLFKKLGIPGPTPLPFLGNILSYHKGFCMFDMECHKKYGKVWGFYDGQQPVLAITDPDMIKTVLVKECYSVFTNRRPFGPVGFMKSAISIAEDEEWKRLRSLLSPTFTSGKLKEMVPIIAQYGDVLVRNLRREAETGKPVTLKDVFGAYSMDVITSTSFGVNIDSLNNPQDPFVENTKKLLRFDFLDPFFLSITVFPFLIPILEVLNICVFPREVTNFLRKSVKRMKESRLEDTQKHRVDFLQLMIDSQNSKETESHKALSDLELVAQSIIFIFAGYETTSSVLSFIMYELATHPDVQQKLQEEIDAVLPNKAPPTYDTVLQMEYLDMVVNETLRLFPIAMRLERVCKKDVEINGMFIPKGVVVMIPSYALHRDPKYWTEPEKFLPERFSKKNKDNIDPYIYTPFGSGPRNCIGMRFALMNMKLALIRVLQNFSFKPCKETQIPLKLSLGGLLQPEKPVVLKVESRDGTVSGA", "assay": "Inhibition of CYP3A4 (unknown origin)", "assay_type": "ADME"}}}
{"smiles": "Cc1ccc(-n2nccn2)c(C(=O)N2CCCC(COc3ccc(F)c(C)c3)C2)c1", "note": "(stereo not given)", "values": [{"measurement": "Ki", "setting": "Orexin receptor type 2 [1]", "value": 16, "unit": "nM"}, {"measurement": "Ki", "setting": "[2]", "value": 15, "unit": "nM"}]}
{"smiles": "COc1cccc(OC)c1C(=O)N1CCCN(c2nc3ccc(Cl)cc3s2)CC1", "values": [{"measurement": "IC50", "setting": "[3]", "value": 630, "unit": "nM"}]}
{"smiles": "Cc1nc(C(=O)N2CCCC[C@H]2CCOc2ccc(F)cc2)c(-c2ccccc2)s1", "values": [{"measurement": "IC50", "setting": "Orexin receptor type 2 [4]", "value": 14, "unit": "nM"}, {"measurement": "IC50", "setting": "[3]", "value": 12, "unit": "nM"}]}
{"smiles": "CSc1cccc(NC(=O)[C@@H]2CCCN2S(=O)(=O)c2ccc(Br)s2)c1", "values": [{"measurement": "IC50", "setting": "[5]", "value": 21, "unit": "nM"}]}
{"smiles": "COc1ccc(S(=O)(=O)N2CCC[C@H]2C(=O)Nc2cccc(SC)c2)cc1", "values": [{"measurement": "IC50", "setting": "Orexin receptor type 2 [6]", "value": 7, "unit": "nM"}, {"measurement": "IC50", "setting": "Cytochrome P450 3A4", "value": 8000, "unit": "nM"}, {"measurement": "IC50", "setting": "[5]", "value": 31, "unit": "nM"}]}
{"smiles": "CCN(CCN(C)c1nc2ccccc2o1)C(=O)c1cc(C)ccc1-n1nccn1", "values": [{"measurement": "IC50", "setting": "Orexin receptor type 2 [4]", "value": 18, "unit": "nM"}, {"measurement": "IC50", "setting": "[3]", "value": 13, "unit": "nM"}]}
{"smiles": "Cc1nc(C(=O)N2CCCCC2CCOc2ccc(F)cc2)c(-c2ccccc2)s1", "note": "(stereo not given)", "values": [{"measurement": "Ki", "setting": "Orexin receptor type 2 [1]", "value": 4, "unit": "nM"}, {"measurement": "Ki", "setting": "[2]", "value": 8, "unit": "nM"}]}
{"smiles": "COc1ccc(CC2c3cc(OC(C)C)c(OC)cc3CCN2CC(=O)NCc2ccccc2)cc1OC", "note": "(stereo not given)", "values": [{"measurement": "IC50", "setting": "Orexin receptor type 2 [4]", "value": "> 10000", "unit": "nM"}, {"measurement": "IC50", "setting": "[3]", "value": 17, "unit": "nM"}]}
